Measurements: the METLIN SMRT retention time set (Domingo-Almenara et al. 2019)

Assay: gradient 5% acetonitrile 3 min, to 50% in 2 min, to 85% in 15 min, held 3 min, 100 µL/min
Details: column: Zorbax Extend-C18 2.1 x 50 mm; eluents: water / acetonitrile, 0.1% formic acid
Outline: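 The mobile phases were water and acetonitrile, each with 0.1% formic acid, pumped at 100 μL/min through a Zorbax Extend-C18 column (2.1 × 50 mm, 1.8 μm). Pure standards were injected as mixtures of ~100 molecules and detected by a quadrupole time-of-flight mass spectrometer in positive and negative ionization mode. Retention time came from computationally picked adduct peaks, each inspected by hand.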

RP-LC retention time | SMILES
716 s | O=C(NC1CC1)c1ccc(-c2cccs2)nc1
1130 s | CCCCNc1onc(-c2ccc(F)cc2)c1C(=O)OC
618 s | CSc1ccc(NC(=O)Nc2c(-c3ccncc3)nc3ccccn23)cc1
1140 s | Ic1cccc(/C=N/Nc2nc(N3CCOCC3)nc(N(c3ccccc3)c3ccccc3)n2)c1
723 s | COC(=O)c1c(C)[nH]c(C(=O)N2CCCC(C(=O)N3CCCCCC3)C2)c1C (centres undefined)
908 s | Cc1ccccc1-c1nnc(CSc2nnc(NC(=O)c3cccs3)s2)o1
924 s | COc1ccc(OC)c(-c2cn3ccn(-c4cccc(Cl)c4C)c(=O)c3n2)c1
674 s | CCOC(=O)C1=C(CN2CCCC(C(=O)OCC)C2)NC(=O)NC1c1ccc(C)cc1 (centres undefined)
571 s | Cc1nnc(N2CCC(C(=O)NCCN3CCOCC3)CC2)c2nn(-c3ccc(Cl)cc3)c(C)c12
1270 s | CC(C)CN1CCCCc2cc(C(=O)NC(C)(C)C)sc21
696 s | COc1ccc(OC)c(NC(=O)Nc2c(-c3cccc(C)c3)nc3ccccn23)c1
1030 s | CCOc1ccc(N(C)S(=O)(=O)c2ccsc2C(=O)NC2CCCC2)cc1
876 s | O=C(c1ccc(F)c(F)c1)N1CCN(C(=O)c2nnn3c2COC(c2ccccc2)C3)CC1 (centres undefined)
564 s | CCN1CCN(c2ncc3c(n2)CC(c2cc(OC)c(OC)c(OC)c2)CC3=O)CC1 (centres undefined)
694 s | O=C(NCCc1ccccc1)Nc1cccc(-c2nnc3n2CCCC3)c1
599 s | Cc1ccc2c(Nc3ccc(C)c(F)c3)c(C(=O)N3CCOCC3)cnc2n1
559 s | CC(C)N1CCN(C(=O)c2csc(-c3ccc(N4CCCC4)nc3)n2)CC1
939 s | CC1CCCN(C(=O)c2cn(-c3ccc(S(=O)(=O)N4CCCC(C)C4)cn3)cn2)C1 (centres undefined)
651 s | CCCCC(=O)N1CC(c2nc(-c3cccnc3)no2)C2(CCOCC2)C1 (centres undefined)
680 s | Cc1nc(N2CCCC(C(=O)NCCc3ccc(S(N)(=O)=O)cc3)C2)c2c(C)c(C)oc2n1 (centres undefined)
608 s | Nc1ccc(OC(=O)Nc2ccc(O)cc2)cc1
705 s | Cc1ccc(NC(=O)N2CCC(c3nc(C(=O)N(C)C)c(C)o3)CC2)cc1

RP-LC retention time | SMILES
584 s | Cc1nn2c(CNC(=O)C3CCN(C(=O)c4ccccc4)CC3)c(C)nc2s1
675 s | Cc1nc(-c2ccc(C(=O)N3CCCC3)cc2)no1
1010 s | Cc1ccc(NS(=O)(=O)c2cc3c(s2)CCN(C(=O)C2CCC2)C3)cc1Cl
1120 s | COc1cccc(CNC(=O)c2cc3c(-c4cccs4)nn(-c4ccccc4)c3n2C)c1
631 s | CCOC(=O)c1ccc(NC(=O)Nc2c(-c3ccncc3)nc3ccccn23)cc1
649 s | Nc1cc(C2CCN(C(=O)Nc3ccccc3F)CC2)no1
1050 s | CCc1nc2cc(-c3noc(CCc4c[nH]c5ccccc45)n3)ccc2o1
894 s | CC(=O)c1ccc(NC(=O)Cn2nc3c4cc(-c5ccc(Cl)cc5)nn4ccn3c2=O)cc1
616 s | COC(=O)c1ccc(CN2CC(=O)N3CCCC3C2=O)cc1 (centres undefined)
990 s | Cn1nc(-c2nnc(-c3ccccc3F)o2)c2c1CCN(S(=O)(=O)c1ccc(F)c(Cl)c1)C2
703 s | CCc1nnc(-c2ccc3ccn(CC(=O)Nc4ccc(NC(C)=O)cc4)c3c2)o1
701 s | O=C(CCc1c(-c2ccc(Br)cc2)nc2ccccn12)NCc1ccc(F)cc1
581 s | c1cncc(-c2nc(-c3ccc4c(c3)ncn4CCN3CCCCC3)no2)c1
1030 s | CCOc1ccc(CC(=O)N2CCC3(CC2)Nc2cc(OC)ccc2-n2cccc23)cc1OCC
652 s | CC(C)C(=O)N1CCc2cc(CNS(=O)(=O)Cc3ccccc3)ccc21
1070 s | O=S(=O)(NCc1cccs1)c1cc(-c2nnc(-c3ccccc3)o2)ccc1F
890 s | CC(=O)NCc1ccc(-c2noc(Cc3ccc(Br)cc3)n2)s1
586 s | CCCC(=O)Nc1ccc2c(c1)nc(CN1CCCC1)n2C(C)C
659 s | O=C(NCc1ccc2c(c1)OCO2)C1CCN(c2cncnc2N2CCCCC2)CC1
603 s | Cn1cnnc1SCC(=O)Nc1ccc(F)cc1
791 s | COC(=O)c1c(C)sc(-c2c(-c3ccc(Br)cc3)[nH]c3[nH]c(=O)[nH]c(=O)c23)c1O
816 s | Cc1nc(-c2ccccc2)nn1C1CCN(S(=O)(=O)c2cccs2)C1 (centres undefined)

RP-LC retention time | SMILES
850 s | Cc1nn(C)c(C)c1S(=O)(=O)N1CCO[C@@H](COc2ccccn2)[C@@H]1c1ccccc1
603 s | CC(=O)N1CCC(C2CCN(Cc3ccc(Br)s3)C2)CC1 (centres undefined)
618 s | CCc1noc(-c2ccc(-n3ncc(C(=O)N4CCN(C)CC4)c3C)nc2)n1
676 s | CCn1c(CCNC(=O)c2ccc(C)c(F)c2)nc2cccnc21
628 s | CCOC(=O)c1c(C)oc2ncnc(N3CCN(c4ccccn4)CC3)c12
787 s | CN(C)C(=O)c1csc(S(=O)(=O)N2CCC(C(=O)NCc3ccc(Cl)cc3)CC2)c1
895 s | COc1cccc(CNC(=O)C2(C)CCCN(C(=O)Nc3ccccc3C)C2)c1 (centres undefined)
679 s | CC(C)C(=O)N1CCCC(c2nc(CNC(=O)C3CCC3)cs2)C1 (centres undefined)
829 s | Cc1ccc(S(=O)(=O)Nc2ccc(Nc3ccc(-n4cccn4)nn3)cc2)c(C)c1
1130 s | CC(C)c1cccc(C(C)C)c1N1C(=O)c2ccc(O)cc2C1=O
720 s | Cc1c(Cl)cccc1NC(=O)NCC1CCOCC1
1300 s | CCOc1nc2ccccc2nc1N1CCCC(C(=O)N2CCN(c3ccc(F)cc3)CC2)C1 (centres undefined)
1280 s | COc1ccc(-c2csc(NC(=O)Nc3ccc(Cl)c(Cl)c3)n2)cc1Br
667 s | CCc1ccc(S(=O)(=O)Nc2ccc(-c3cn4cccc(C)c4n3)cc2)cc1
805 s | CCc1ccc(NC(=O)Cc2nnc3c(-c4nc(C5CC5)no4)cccn23)cc1
701 s | O=C(Nc1cccc(C(F)(F)F)c1)N1CCC(n2cnnc2C2CC2)C1 (centres undefined)
1180 s | COc1ccc(OC)c(NC(=O)Cn2nc(N3CCC(C)CC3)c3ccccc3c2=O)c1
722 s | CC(C(=O)N1CCC(c2cc(N)on2)CC1)c1ccccc1 (centres undefined)
863 s | CC(C)c1noc(-c2ccnc(-n3cnc(C(=O)N4CCSCC4)c3)c2)n1
516 s | O=C(O)c1cc2c([nH]c1=O)CCCC2O (centres undefined)
670 s | Cc1nnc2c(=O)n(CC(=O)NCc3cc(F)ccc3F)c3cccnc3n12
1030 s | CC1CCN(c2nc(-c3ccc([N+](=O)[O-])cc3)nc3ccccc23)CC1

RP-LC retention time | SMILES
682 s | Cn1cc(C(CNC(=O)Nc2ccccc2F)c2cccnc2)c2ccccc21 (centres undefined)
812 s | COC(=O)c1c(C)[nH]c(C(=O)N2CCC(CC(=O)NCc3ccc(OC(C)C)cc3)CC2)c1C
711 s | Cc1noc(C2(NC(=O)c3ccc(C(F)(F)F)cc3)CCCCC2)n1
619 s | O=C(CSc1ccc(N2CCCC(C(=O)NC3CC3)C2)nn1)Nc1ccc2c(c1)OCCO2 (centres undefined)
562 s | COc1cn2c(cc1=O)C(=O)N(CCNC(=O)c1cc(=O)c3ccccc3o1)CC2
690 s | CCc1nc2cc(-c3noc(C4(c5ccc(OC)cc5)CC4)n3)ccc2o1
890 s | Cc1ccc(Nc2c(-c3cccc(Cl)c3)nc3cc(C)ccn23)cc1
568 s | O=C(NCCCn1ccnc1)C(=O)Nc1c2c(nn1-c1cccc(Cl)c1)CSC2
599 s | CCN1C(=O)NC(c2ccc(Cl)cc2)C2=C1CN(CCC(=O)NCCOC)C2=O (centres undefined)
741 s | COCCCNc1c(-c2ccc(F)cc2)nc2sc(C(=O)N3CCOCC3)c(C)n12
625 s | N#Cc1cccc2sc(C(=O)N=C(N)N)cc12
984 s | COc1ccc(-n2ccc(=O)c(-c3nc(-c4ccc(Br)cc4)no3)n2)cc1
750 s | Cc1nc2c(sc3nc(-c4ccccc4)ccc32)c(=O)n1CC(=O)NCc1cccs1
684 s | O=C(Nc1ccc(F)cc1)Oc1ccc[nH]c1=O
1400 s | Cc1c(-c2ccnc(N3CCCCC3)n2)cnc2nc(-c3ccc(Cl)cc3)nn12
912 s | CCCn1cc(S(=O)(=O)NCc2ccccc2Cl)c2cccnc21
659 s | Cc1ccc(-n2cc3c(c(C(=O)N4CCN(c5ccccn5)CC4)c2=O)CC(C)(C)CC3=O)cc1
722 s | COc1ccc(C(CC(=O)NCCC(C)C)N2Cc3ccccc3C2=O)cc1OC (centres undefined)
878 s | COc1ccc(-c2noc(C3CC(=O)N(c4cccc(Cl)c4)C3)n2)c(OC)c1 (centres undefined)
959 s | COc1ccc2c(c1)C=C(C(=O)NCCc1ccccc1)C=CO2
658 s | CCCCNC(=O)CCC1CCN(c2cc(NCCC)ncn2)CC1
819 s | COC(=O)Cn1nc2ccc(S(=O)(=O)N3CCC(C)CC3)cn2c1=O

SMILES | RP-LC retention time
CCCN1CCC[C@@H](c2cccc(O)c2)C1 | 596 s
